Data taken from patent US7649013B2, “Methods of protecting against radiation injury” (priority 2003, dated 2010).

Tested on: C57BL/6J inbred strain female mice
Assay: Survival after 8 Gy whole body γ-irradiation, intraperitoneal dosing 4 hours before or after (Example 4)
Assay type: in vivo
Conditions: 10 mg/kg 4 hr before Radiation 8 Gy
Method: β-lapachone is prepared at 10 mg/ml in 40% hydroxypropyl-beta-cyclodextrin (HPBCD).
C57BL/6J inbred strain female mice (4-5 weeks old) are used. Animals are maintained in a climate-controlled animal facility.
Animals are injected with different concentrations of β-lapachone (20 and 40 mg/kg body weight) intraperitoneally 4 hours before or after irradiation.
Whole body irradiation of animals with 8 Gy of γ-rays is carried out in air at room temperature in a gamma chamber (Gammacell 40 Exactor), at a dose-rate of 1.05 Gy/min. This radiation dose is within the range of equivalent human exposures predicted in many scenarios of radiologic or nuclear terrorist attack.
Mice are divided into the following groups (each Group comprises four mice receiving identical treatment):
Group II: Mice are injected with β-lapachone 20 mg/kg body weight 4 hours before radiation.
Group III: Mice are injected with β-lapachone 40 mg/kg body weight 4 hours before radiation.
Group IV: Mice are injected with β-lapachone 20 mg/kg body weight 4 hours after radiation.
Group V: Mice are injected with β-lapachone 40 mg/kg body weight 4 hours after radiation.
Group VI: Mice are injected with amifostine 10 mg/kg body weight 4 hours before radiation.
Animals are irradiated with 8 Gy at 1.05 Gy/min dose-rate. After irradiation mice are returned to their cage and observed on a regular basis. Exposure to γ-rays causes lethality in animals. Importantly, treatment with β-lapachone, especially at a level of 40 mg/kg prior to irradiation, diminishes the death rate.

## NCCCNCCSP(=O)(O)O [Amifostine, reference compound]
  Median survival time: 12 days
4 animals
  No. of animals surviving at 20 days post-irradiation: 0
20 days
  Death rate (%): 100%
Listed as amifostine
  Median survival time in days: little or no effect
